Experimental data reported in ChEMBL document CHEMBL1909046, “DrugMatrix in vitro pharmacology data”.

Experiments:
[1] = DRUGMATRIX: Atrial Natriuretic Factor (ANF) radioligand binding (ligand: [125I] ANF (rat)); type: cell membranes, Cavia porcellus, Dunkin-Hartley, Adrenal gland, Membrane; settings: Not Active = under 50% inhibition at 10 µM
[2] = target: 5-hydroxytryptamine receptor 6 (Homo sapiens, UniProt P50406); type: cell membranes, HeLa, Membrane; settings: hela; further: in other assays of this panel Not Active means under 50% inhibition at 10 µM
[3] = target: Sigma non-opioid intracellular receptor 1 (Homo sapiens, UniProt Q99720); assay: DRUGMATRIX: Sigma1 radioligand binding (ligand: [3H] Haloperidol); type: cell membranes, Jurkat, Membrane; settings: jurkat; Not Active = under 50% inhibition at 10 µM
[4] = target: Vascular endothelial growth factor receptor 1 (Homo sapiens, UniProt P17948); type: cell-based; settings: huvec; further: in other assays of this panel Not Active means under 50% inhibition at 10 µM
[5] = target: C-C chemokine receptor type 5 (Homo sapiens, UniProt P51681); type: cell membranes, Membrane; settings: hek293; further: in other assays of this panel Not Active means under 50% inhibition at 10 µM
D(3) dopamine receptor = D(3) dopamine receptor (Homo sapiens, UniProt P35462); assay: DRUGMATRIX: Dopamine D3 radioligand binding (ligand: [3H] Spiperone); type: cell membranes, CHO, Membrane; settings: cho
[6] = target: T1, 3-hydroxy-3-methylglutaryl-coenzyme A reductase (Homo sapiens, UniProt P04035); set-up: species or system Escherichia coli;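 further: enzyme inhibition assay of HMG-CoA reductase using radiolabeled [14C]HMG-CoA as substrate; in other assays of this panel Not Active means under 50% inhibition at 10 µM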
T1 sequence (P04035 whole entry): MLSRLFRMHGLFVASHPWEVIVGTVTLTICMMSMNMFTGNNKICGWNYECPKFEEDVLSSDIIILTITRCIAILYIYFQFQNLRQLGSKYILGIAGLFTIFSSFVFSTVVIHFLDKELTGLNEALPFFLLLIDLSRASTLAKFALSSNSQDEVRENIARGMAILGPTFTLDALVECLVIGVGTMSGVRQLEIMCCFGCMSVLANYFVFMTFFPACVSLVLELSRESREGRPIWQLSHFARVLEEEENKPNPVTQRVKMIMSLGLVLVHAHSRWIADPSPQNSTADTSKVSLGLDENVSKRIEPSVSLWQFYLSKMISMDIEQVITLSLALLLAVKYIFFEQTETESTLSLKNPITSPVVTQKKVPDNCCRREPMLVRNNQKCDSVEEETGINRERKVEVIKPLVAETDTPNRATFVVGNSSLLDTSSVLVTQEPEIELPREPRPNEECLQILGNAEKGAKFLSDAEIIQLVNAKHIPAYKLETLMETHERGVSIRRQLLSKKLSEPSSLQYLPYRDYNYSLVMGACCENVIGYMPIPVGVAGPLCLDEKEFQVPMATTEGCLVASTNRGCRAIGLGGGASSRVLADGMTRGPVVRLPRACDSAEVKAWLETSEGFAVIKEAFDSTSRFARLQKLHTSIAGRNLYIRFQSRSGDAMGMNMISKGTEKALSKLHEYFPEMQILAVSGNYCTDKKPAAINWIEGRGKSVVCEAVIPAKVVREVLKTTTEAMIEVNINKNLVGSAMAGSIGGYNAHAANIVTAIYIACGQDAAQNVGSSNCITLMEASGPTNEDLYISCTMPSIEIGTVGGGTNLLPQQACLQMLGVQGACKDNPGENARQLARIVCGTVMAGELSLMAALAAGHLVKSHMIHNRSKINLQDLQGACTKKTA

Leukotriene C4 synthase = target: T2, Leukotriene C4 synthase (Cavia porcellus, UniProt A6XA80); assay: biochemical; type: tissue-based, Lung
T2 sequence (A6XA80 whole entry): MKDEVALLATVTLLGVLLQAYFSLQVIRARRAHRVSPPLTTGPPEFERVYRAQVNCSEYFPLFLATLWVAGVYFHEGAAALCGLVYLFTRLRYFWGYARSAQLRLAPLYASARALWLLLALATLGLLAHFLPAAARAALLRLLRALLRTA

[7] = target: T3, Nitric oxide synthase, inducible (Mus musculus, UniProt P29477); set-up: species or system Escherichia coli
T3 sequence (P29477 whole entry): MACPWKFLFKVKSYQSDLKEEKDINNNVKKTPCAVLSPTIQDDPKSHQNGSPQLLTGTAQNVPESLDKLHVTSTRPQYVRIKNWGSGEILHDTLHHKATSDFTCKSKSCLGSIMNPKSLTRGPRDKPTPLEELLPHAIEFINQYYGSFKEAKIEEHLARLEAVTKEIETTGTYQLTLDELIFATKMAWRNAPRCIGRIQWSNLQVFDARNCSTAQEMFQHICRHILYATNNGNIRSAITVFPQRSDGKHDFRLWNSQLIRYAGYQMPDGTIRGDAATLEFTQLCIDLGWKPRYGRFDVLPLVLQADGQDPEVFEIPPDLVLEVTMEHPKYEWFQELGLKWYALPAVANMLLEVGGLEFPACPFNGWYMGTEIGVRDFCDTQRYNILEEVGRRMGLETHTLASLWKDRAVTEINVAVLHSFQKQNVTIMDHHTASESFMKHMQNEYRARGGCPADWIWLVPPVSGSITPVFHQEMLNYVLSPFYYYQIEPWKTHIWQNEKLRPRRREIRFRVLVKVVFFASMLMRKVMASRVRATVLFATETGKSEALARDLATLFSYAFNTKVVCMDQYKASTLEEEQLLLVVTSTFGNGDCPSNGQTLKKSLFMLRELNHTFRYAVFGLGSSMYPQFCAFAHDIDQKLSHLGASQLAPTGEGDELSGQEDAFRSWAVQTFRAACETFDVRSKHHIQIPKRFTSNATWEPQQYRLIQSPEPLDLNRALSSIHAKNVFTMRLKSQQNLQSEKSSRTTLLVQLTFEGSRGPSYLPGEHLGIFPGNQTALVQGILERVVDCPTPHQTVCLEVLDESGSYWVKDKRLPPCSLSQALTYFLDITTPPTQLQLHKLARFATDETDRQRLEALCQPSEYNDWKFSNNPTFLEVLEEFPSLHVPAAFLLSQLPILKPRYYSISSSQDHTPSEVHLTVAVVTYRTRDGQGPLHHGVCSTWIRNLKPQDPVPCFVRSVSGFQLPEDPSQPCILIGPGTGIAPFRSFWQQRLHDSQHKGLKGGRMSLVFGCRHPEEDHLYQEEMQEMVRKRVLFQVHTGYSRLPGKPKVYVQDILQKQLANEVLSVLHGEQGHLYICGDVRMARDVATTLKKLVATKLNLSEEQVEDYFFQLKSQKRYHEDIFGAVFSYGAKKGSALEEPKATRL

Acetylcholinesterase = Acetylcholinesterase (Homo sapiens, UniProt P22303); assay: DRUGMATRIX: Acetylcholinesterase enzyme inhibition (substrate: acetylthiocholine); type: cell-based, HEK293; settings: hek293; Not Active = under 50% inhibition at 10 µM
Sequence of Acetylcholinesterase (P22303 whole entry): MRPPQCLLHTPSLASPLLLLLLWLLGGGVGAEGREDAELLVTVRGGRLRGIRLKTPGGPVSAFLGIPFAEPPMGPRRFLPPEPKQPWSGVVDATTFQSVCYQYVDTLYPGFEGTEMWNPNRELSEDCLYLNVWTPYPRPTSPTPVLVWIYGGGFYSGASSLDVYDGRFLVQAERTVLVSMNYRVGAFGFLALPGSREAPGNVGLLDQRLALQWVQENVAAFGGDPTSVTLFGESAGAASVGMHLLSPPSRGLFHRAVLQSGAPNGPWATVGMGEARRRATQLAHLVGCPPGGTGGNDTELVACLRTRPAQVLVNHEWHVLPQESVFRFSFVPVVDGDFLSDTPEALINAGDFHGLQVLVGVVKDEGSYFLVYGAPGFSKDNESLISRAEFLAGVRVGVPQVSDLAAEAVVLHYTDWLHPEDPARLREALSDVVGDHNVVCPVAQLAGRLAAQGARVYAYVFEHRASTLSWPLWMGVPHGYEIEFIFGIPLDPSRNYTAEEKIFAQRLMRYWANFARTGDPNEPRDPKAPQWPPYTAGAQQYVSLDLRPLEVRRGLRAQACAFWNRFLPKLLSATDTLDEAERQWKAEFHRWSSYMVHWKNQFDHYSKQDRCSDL

Sequence of C-C chemokine receptor type 5 (P51681 whole entry): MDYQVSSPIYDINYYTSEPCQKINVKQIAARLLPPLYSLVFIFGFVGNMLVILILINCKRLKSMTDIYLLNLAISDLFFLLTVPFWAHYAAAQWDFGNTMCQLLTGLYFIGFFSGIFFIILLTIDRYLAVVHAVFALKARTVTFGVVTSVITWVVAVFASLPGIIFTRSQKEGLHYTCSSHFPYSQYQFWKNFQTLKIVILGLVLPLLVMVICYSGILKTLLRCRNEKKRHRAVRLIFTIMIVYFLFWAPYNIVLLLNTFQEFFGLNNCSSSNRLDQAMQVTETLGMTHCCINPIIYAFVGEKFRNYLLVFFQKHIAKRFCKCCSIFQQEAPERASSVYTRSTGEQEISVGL
Sequence of Vascular endothelial growth factor receptor 1 (P17948 whole entry): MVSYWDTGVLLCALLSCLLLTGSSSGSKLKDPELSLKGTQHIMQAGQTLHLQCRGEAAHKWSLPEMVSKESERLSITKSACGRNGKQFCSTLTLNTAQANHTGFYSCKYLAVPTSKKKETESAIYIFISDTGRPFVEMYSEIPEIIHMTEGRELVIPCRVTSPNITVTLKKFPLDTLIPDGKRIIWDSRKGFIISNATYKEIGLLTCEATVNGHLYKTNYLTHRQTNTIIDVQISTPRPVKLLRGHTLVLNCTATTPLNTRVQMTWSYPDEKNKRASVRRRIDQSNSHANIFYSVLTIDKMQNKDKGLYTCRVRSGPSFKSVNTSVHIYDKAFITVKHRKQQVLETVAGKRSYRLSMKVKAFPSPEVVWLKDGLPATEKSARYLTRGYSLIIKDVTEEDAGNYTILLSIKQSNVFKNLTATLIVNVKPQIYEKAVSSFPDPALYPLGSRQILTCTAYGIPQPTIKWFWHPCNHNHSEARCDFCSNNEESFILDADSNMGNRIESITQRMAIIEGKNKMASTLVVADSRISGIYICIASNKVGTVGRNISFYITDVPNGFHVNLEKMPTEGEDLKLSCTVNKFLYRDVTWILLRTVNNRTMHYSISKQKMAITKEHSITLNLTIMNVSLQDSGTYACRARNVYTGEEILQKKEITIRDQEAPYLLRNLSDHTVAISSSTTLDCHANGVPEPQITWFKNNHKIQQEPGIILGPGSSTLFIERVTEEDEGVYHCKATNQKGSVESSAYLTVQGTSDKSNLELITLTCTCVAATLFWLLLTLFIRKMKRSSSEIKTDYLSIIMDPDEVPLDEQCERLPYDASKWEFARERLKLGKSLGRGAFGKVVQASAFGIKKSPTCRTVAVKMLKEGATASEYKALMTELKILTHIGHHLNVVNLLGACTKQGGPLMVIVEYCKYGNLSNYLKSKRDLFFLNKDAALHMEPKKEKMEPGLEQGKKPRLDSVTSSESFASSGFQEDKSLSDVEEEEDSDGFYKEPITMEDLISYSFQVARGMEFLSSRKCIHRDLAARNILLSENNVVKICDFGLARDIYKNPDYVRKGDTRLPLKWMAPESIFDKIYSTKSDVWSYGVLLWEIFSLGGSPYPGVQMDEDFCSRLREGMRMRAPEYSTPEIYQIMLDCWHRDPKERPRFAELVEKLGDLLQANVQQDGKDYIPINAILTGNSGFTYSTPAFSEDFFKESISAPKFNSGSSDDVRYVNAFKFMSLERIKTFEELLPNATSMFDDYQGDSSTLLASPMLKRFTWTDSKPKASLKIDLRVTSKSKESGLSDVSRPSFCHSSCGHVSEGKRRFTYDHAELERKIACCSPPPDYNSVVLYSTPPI
Sequence of D(3) dopamine receptor (P35462 whole entry): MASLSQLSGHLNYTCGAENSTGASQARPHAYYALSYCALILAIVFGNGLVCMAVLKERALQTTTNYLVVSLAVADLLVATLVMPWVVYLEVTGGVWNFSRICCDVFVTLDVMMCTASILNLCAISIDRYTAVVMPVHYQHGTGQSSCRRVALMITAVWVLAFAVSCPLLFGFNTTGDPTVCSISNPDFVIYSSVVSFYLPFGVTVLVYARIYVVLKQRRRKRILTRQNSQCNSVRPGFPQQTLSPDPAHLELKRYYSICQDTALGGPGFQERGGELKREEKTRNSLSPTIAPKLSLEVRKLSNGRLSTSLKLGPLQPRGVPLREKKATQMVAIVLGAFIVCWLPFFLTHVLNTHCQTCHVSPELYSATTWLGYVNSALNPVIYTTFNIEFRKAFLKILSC
Sequence of 5-hydroxytryptamine receptor 6 (P50406 whole entry): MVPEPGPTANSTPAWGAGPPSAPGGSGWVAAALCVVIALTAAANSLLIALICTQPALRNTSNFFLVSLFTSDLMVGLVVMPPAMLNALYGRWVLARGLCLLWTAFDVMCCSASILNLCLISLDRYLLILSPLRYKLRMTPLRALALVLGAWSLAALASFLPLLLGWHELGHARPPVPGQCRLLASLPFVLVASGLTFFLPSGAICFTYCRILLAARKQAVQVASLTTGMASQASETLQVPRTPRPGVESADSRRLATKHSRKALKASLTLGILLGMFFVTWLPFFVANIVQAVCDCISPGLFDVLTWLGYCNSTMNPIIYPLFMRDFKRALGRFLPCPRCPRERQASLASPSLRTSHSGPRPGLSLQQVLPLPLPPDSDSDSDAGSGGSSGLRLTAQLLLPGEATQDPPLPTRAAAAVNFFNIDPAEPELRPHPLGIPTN
Sequence of Sigma non-opioid intracellular receptor 1 (Q99720 whole entry): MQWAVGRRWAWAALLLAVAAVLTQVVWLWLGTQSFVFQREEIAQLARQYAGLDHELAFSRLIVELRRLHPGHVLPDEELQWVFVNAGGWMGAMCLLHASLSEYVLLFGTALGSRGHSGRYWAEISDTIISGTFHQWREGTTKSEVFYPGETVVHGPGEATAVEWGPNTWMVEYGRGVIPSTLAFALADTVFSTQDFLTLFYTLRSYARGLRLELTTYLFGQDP

Compound	IC50 [1]	Ki [1]	IC50 [2]	IC50 [3]	IC50 [4]	IC50 [5]	IC50 (D(3) dopamine receptor)	IC50 [6]	IC50 (Leukotriene C4 synthase)	IC50 [7]	IC50 (Acetylcholinesterase)	further results
CN1[C@@H]2CC[C@H]1C[C@@H](OC(=O)c1c[nH]c3ccccc13)C2 [TROPISETRON]	Not Active	Not Active	Not Active	Not Active	Not Active	Not Active	Not Active	Not Active	Not Active	Not Active	Not Active	–
NC(=O)c1ncn([C@@H]2O[C@H](CO)[C@@H](O)[C@H]2O)n1 [RIBAVIRIN]	Not Active	Not Active	Not Active	Not Active	Not Active	Not Active	Not Active	Not Active	Not Active	Not Active	Not Active	–
IVERMECTIN	Not Active	Not Active	Not Active	Not Active	Not Active	Not Active	–	Not Active	Not Active	Not Active	Not Active	Ki [2]: Not Active; Ki [3]: Not Active; Ki [4]: Not Active; Ki [5]: Not Active; IC50 (D(3) dopamine receptor; read-out: IC50): 2.21 µM; Ki (D(3) dopamine receptor; read-out: Ki): 0.75 µM; Ki [6]: Not Active; Ki (Leukotriene C4 synthase): Not Active; Ki [7]: Not Active; Ki (Acetylcholinesterase): Not Active
CO[C@@H]1[C@@H](O[C@@H]2O[C@H](C)[C@@H](O[C@H]3C[C@@](C)(O)[C@@H](OC(=O)CC(C)C)[C@H](C)O3)[C@H](N(C)C)[C@H]2O)[C@@H](CC=O)C[C@@H](C)[C@@H](O)/C=C/C=C/C[C@@H](C)OC(=O)C[C@H]1O [KITASAMYCIN]	Not Active	Not Active	Not Active	Not Active	Not Active	Not Active	Not Active	Not Active	Not Active	Not Active	Not Active	–
CN(N=O)C(=O)N[C@@H](C=O)[C@@H](O)[C@H](O)[C@H](O)CO [STREPTOZOCIN]	Not Active	Not Active	Not Active	Not Active	Not Active	Not Active	Not Active	Not Active	Not Active	Not Active	Not Active	–
CC(C)(C)NCC(O)c1cc(O)cc(O)c1 (stereo unspecified) [TERBUTALINE]	Not Active	Not Active	Not Active	Not Active	Not Active	Not Active	Not Active	Not Active	Not Active	Not Active	Not Active	–
O=C1c2c(O)ccc(O)c2C(=O)c2c(NCCNCCO)ccc(NCCNCCO)c21 [MITOXANTRONE]	Not Active	Not Active	Not Active	Not Active	Not Active	Not Active	Not Active	Not Active	Not Active	–	Not Active	Ki [7]: Not Active
Nc1ccc(S(N)(=O)=O)cc1 [SULFANILAMIDE]	Not Active	Not Active	Not Active	Not Active	Not Active	Not Active	Not Active	Not Active	Not Active	Not Active	Not Active	–
CC[C@H]1OC(=O)[C@H](C)[C@@H](O[C@H]2C[C@@](C)(OC)[C@@H](O)[C@H](C)O2)[C@H](C)[C@@H](O[C@@H]2O[C@H](C)C[C@H](N(C)C)[C@H]2O)[C@](C)(O)C[C@@H](C)/C(=N\OCOCCOC)[C@H](C)[C@@H](O)[C@]1(C)O [ROXITHROMYCIN]	Not Active	Not Active	Not Active	Not Active	Not Active	Not Active	Not Active	Not Active	Not Active	Not Active	Not Active	–
COC(=O)c1ccc(O)cc1 [METHYLPARABEN]	Not Active	Not Active	Not Active	Not Active	Not Active	Not Active	Not Active	Not Active	Not Active	Not Active	Not Active	–
NC(CO)(CO)CO [TROMETHAMINE]	Not Active	Not Active	Not Active	Not Active	Not Active	Not Active	Not Active	Not Active	Not Active	Not Active	Not Active	–
CCOC(=O)[C@H](CCc1ccccc1)N[C@@H](C)C(=O)N1[C@H](C(=O)O)C[C@@H]2CCC[C@@H]21	Not Active	Not Active	Not Active	Not Active	Not Active	Not Active	Not Active	Not Active	Not Active	Not Active	Not Active	–
